# Laboratory results taken from patent publication US20210355509A1, “ALTERNATIVE SPLICING REGULATION OF GENE EXPRESSION AND THERAPEUTIC METHODS” (THE CHILDREN'S HOSPITAL OF PHILADELPHIA, priority 2018, published 2021).
# How the values were obtained:
# HTT = experiment: SMN2_CRISPRi regulated epigenetic silencing, Western blot; type: cell-based, human; conditions: RG7800 1 μM, HEK293 cells transfected with the SMN2_CRISPRi system
# Method: (§1) HEK293 cells were transfected with plasmids encoding the CRISPRi silencing system (dCas9, sgRNA and MCP-Krab expression cassettes). Importantly, the dCas9 was cloned under the SMN2 splice regulated cassette to control dCas9 protein expression with RG7800. 24 hours after transfection, cells were selected using Puromicin (3 μM, 24 h), passaged onto a new plate, and treated with RG7800 (1 μM). HEK293 cells were lysed 36 h after RG7800 treatment using Passive lysis buffer (Promega, CA), and Huntingtin (HTT), Cas9 and Beta Catenin (Beta cat) protein levels were determined by Western Blot. Beta Catenin protein levels were determined as loading control. HTT, Cas9 and Beta Cat protein levels were quantified using the ChemiDoc Imaging System (Bio-Rad) and Imagine Lab analysis Software.
# SMN2 minigene Exon 7 = experiment: SMN2 minigene PCR splicing assay with RG7800; type: cell-based, human; conditions: RG7800 10 nM, 100 nM, 1 μM and 10 μM; HEK293
# Method: HEK293 cells were transfected with plasmids expressing the SMN2 minigene (0.3 μg) and 4 hours later treated with different doses of RG7800 (10 nM, 100 nM, 1 μM and 10 μM). 24 hours after transfection, RNA was harvested, DNAseI treated, and 1 μg of RNA was reverse transcribed to assess SMN2 minigene splicing using PCR. PCR products were separated on a 3% agarose gel and exon 7 production was quantified using the ChemiDoc Imaging System (Bio-Rad) and Imagine Lab analysis Software.
# Cas9 = experiment: SMN2_CRISPRi regulated Cas9 expression, Western blot; type: cell-based, human; conditions: RG7800 1 μM, HEK293 cells transfected with the SMN2_CRISPRi system
# Method: as §1
# SMN mouse model = conditions: cited from earlier work
# SMN2 exon 7 [1] = conditions: mouse brain; cited from earlier work
# [2] = mice, oral, 3 mg/Kg, serum; read-out: Cmax (maximum concentration); cited from earlier work
# SMN2 exon 7 [3] = experiment: SMN2/transactivator minigene exon 7 splicing, semi-quantitative RT-PCR; type: cell-based, human
# Source text: FIGS. 4a-c show modified SMN2/transactivator minigenes express spliced RNA transcript isoforms to constitutively exclude (CSI3) or include (CSI5) exon7, influencing background expression of the optimized RNAi promoter. […] The 3′ and 5′ Exon7 splicing sites in the SMN2/transactivator minigene were modified to constitutively exclude (CSI3, 3′ modified) or include (CSI5, 5′ modified) exon 7.
# FIGS. 5a-b show splicing and activity of CSI and CSI3 minigenes in response to LIM070.
# To regulate transactivator expression, the transactivator was cloned downstream of a self-cleaving 2A peptide and the SMN2 minigene comprising exons 6-7 and the 5′ end of exon 8, and minimal intronic intervening sequences necessary to recapitulate SMN2 splicing^38 (FIG. 4a). Note that 10% of the transcripts include exon 7, similar to the native SMN2 genetic state. The transcripts produce transactivator that partially activates the RNAi expression cassette. Thus, the 3′ and 5′ Exon7 splicing sites in the SMN2/transactivator minigene were modified to constitutively exclude (CSI3, 3′ modified) or include (CSI5, 5′ modified) exon 7, which minimizes RNAi promoter background activation^39 (FIGS. 4b-c). […] Also, the entire cassette fits into rAAV.
# HEK293 cells = experiment: De novo exon splicing in response to LMI070, RNA-seq and PCR validation; type: cell-based, human; conditions: LMI070 25 nM, PCR
# Method: The following methods were used to obtain the data illustrated in FIGS. 8-15. […] 12 hours after treatment RNA was extracted using Trizol followed by DNAseI treatment. Samples were evaluated for quality control on agilent bioanalyzer and all samples had RIN values >9.8 and were sent for Illumina RiboZero Gold total RNA library preparation and sequencing with an Illumina HiSeq4000. A 150 bp Pair end sequencing reads were obtained from illumina sequencing. Fastq files obtained from the illumina platform were aligned to the Human genome GRCh38 using the STAR aligner. SAM format alignment files output from STAR were sorted, converted to BAM format and indexed using Samtools. To visualize splicing at any region in the alignment BAM files were opened in IGV and visualized using the Sashimi plot function.
# To identify regions of interest which contained high levels of differential splicing a custom R program was created. […] These files contained the raw counts obtained at each splice junction as calculated during alignment by STAR. […] 1) Read input files into R. 2) Create unique position IDs for each row (splice site) in the dataset. […] 6) sort the extracted reads from highest to lowest by Mean counts value. […]
# The following methods were used to obtain the data in FIG. 16. […] As observed on the PCR, PCR products of higher size were detected on samples treated with LM1070 (FIG. 16). […]
# [4] = LMI070 pharmacokinetics in mice, oral; type: in vivo; conditions: 3 mg/Kg
SMILES,HTT expression levels reduced (HTT),Exon 7 inclusion in the SMN2 minigene (SMN2 minigene Exon 7),Cas9 protein levels (Cas9),minimal dose with therapeutic effects (SMN mouse model) [mg/kg],maximum dose reported to increase SMN2 exon 7 inclusion (SMN2 exon 7 [1]) [mg/kg],Cmax [2] [nM],"exon 7 inclusion at brain-equivalent concentration (SMN2 exon 7 [3]; 120 nM, CSI and CSI3 minigenes (FIG. 5))","exon 7 inclusion in response to LMI070 (SMN2 exon 7 [3]; HEK293 cells, CSI and CSI3 minigenes, 20 h after LMI070 treatment)",de novo exon splicing (HEK293 cells),concentration in the brain [4] [nM]
CCc1nc(C)cn2nc(-c3cc(=O)n4cc(C5CCN(C)CC5)cc(C)c4n3)cc12 [RG7800],about 45%,induction of Exon 7 inclusion,increase,–,–,–,–,–,–,–
CC1(C)CC(Oc2ccc(-c3ccc(-c4cn[nH]c4)cc3O)nn2)CC(C)(C)N1 [LMI070],–,–,–,1,30,86,induces exon 7 inclusion,dose-responsive,novel exons are included,120
